Columns and labels:
[1] = system: patients with schizophrenia; assay: Change in QTcF from baseline to Day 14 by SNP genotype, phase 3 clinical trial of iloperidone (WGAS); assay type: in vivo, human; conditions: iloperidone 12 mg bid
Experimental: To identify new genetic markers of drug-induced QT prolongation, a whole genome association study (WGAS) was conducted as part of a phase 3 clinical trial of iloperidone. The clinical trial was a randomized, double-blind, placebo-, and ziprasidone-controlled multicenter study evaluating the efficacy, safety, and tolerability of a 24 mg/day dose of iloperidone administered twice a day (bid) for 28 days to patients with schizophrenia in acute exacerbation.
Therefore, the change in QT interval was calculated between baseline and Day 14. The Fridericia correction (QTcF) was applied, and a generalized linear model (GLM) statistical analysis using baseline as a covariate was performed. […] Analysis was focused on those SNPs located within or close to genes (<10 kb away) in which the minor genotype group included at least 10% of the patients. Six SNPs of interest were identified in the CERKL, SLCO3A1, BRUNOL4, NRG3, NUBPL, and PALLD genes (Table 1). The possibility that changes in the QT interval reflect drug concentration differences could not be excluded because drug exposure at the time of electrocardiography (ECG) was not known. However, the six SNPs identified here are within genes not expected to play roles in drug absorption, metabolism, or excretion. For these SNPs, genotype calls generated by the microarray set were confirmed by sequencing on a random subset of DNA samples of iloperidone-treated patients. The association of a particular genotype class with lower or higher increased QT was consistent between men and women and across races. Additional SNPs with statistical association at P<0.001 were observed within or near the CERKL, SLCO3A1, NRG3, NUBPL, and PALLD genes (FIGS. 1a-f).
Patients 18 to 65 years of age with diagnoses of schizophrenia according to the Diagnostic and Statistical Manual of Mental Disorders, 4th Edition (disorganized [295.10], paranoid [295.30], or undifferentiated [295.90]) were eligible to participate in the trial. Patients were randomly assigned to iloperidone 12 mg twice a day (bid), ziprasidone 80 mg bid (active control), or placebo. Doses were titrated to their respective target doses from Days 1 to 7 and were maintained until Day 28. Participation in the pharmacogenomic analysis was optional. Blood samples were collected, and DNA was extracted (Quest Diagnostics Laboratories, Van Nuys, Calif.) from 432 of 457 patients who consented to the optional WGAS, including 218 patients administered iloperidone. Of these iloperidone-treated patients, 183 (152 men and 31 women) with QT data at Day 14 were part of the WGAS reported here. They included 16 Asian, 69 white, and 91 black or African American patients and 7 patients of other ethnic origins.
Twelve-lead ECG was performed at baseline and on Days 7, 14, 21, and 28. Except at baseline, ECG was performed 2 hours after patients had received the morning dose of study drug. ECG was performed 3 times at baseline and on Day 14, with single measurements obtained for other visits. QTc interval was calculated based on QTcF. The effect of iloperidone on QTc interval was measured by the mean change from baseline in Qtc.
Genetic markers associated with prolongation of QTcF were identified through GLM analysis. The dependent variable was mean change from baseline to Day 14 because the effects on QT were greatest by Day 14, when iloperidone achieves steady state concentration. Baseline QTcF was used as a covariate, and genotype was used as the classifiable variable. The GLM used type 3 sums of squares, with all pairwise differences produced among the least squares means. Because 3 genetic models (AA vs non-AA; AB vs non-AB; BB vs non-BB) were tested for each of the 334,563 SNPs, a total of 1,003,689 tests were performed. The Benjamini and Hochberg (BH) procedure was used to control for the expected proportion of FDR. FDR corrections were obtained from PROC MULTTEST (SAS Institute, Cary, N.C.), which produces BH adjustments to original analytical P values. […]

[2] = system: patients treated with iloperidone; assay: Occurrence of torsades de pointes in patients treated with iloperidone; assay type: in vivo, human; conditions: any patient treated with iloperidone, to date

SMILES: COc1cc(C(C)=O)ccc1OCCCN1CCC(c2noc3cc(F)ccc23)CC1 [Iloperidone, 1-[4-[3-[4-(6-fluoro-1,2-benzisoxazol-3-yl)-1-piperidinyl]propoxy]-3-methoxyphenyl]ethanone]
- mean change in QT (QTcF) from baseline to Day 14 ([1]; rs993648 (CERKL) genotype CC, N=50): 17.02 ms
- mean change in QT (QTcF) from baseline to Day 14 ([1]; rs993648 (CERKL) genotype CT (heterozygous), N=80): 4.50 ms
- mean change in QT (QTcF) from baseline to Day 14 ([1]; rs993648 (CERKL) genotype CT (heterozygous), N=80, listed as iloperidone): 4.5 ms
- mean change in QT (QTcF) from baseline to Day 14 ([1]; rs993648 (CERKL) genotype Non-CT (homozygous), N=94): 17.81 ms
- mean change in QT (QTcF) from baseline to Day 14 ([1]; rs993648 (CERKL) genotype Non-CT (homozygous), N=94, listed as iloperidone): 17.8 ms
- mean change in QT (QTcF) from baseline to Day 14 ([1]; rs993648 (CERKL) genotype TT, N=44): 18.72 ms
- mean change in QT (QTcF) from baseline to Day 14 ([1]; rs3924426 (SLCO3A1) genotype CC, N=5): -7.00 ms
- mean change in QT (QTcF) from baseline to Day 14 ([1]; rs3924426 (SLCO3A1) genotype CT, N=43): 3.64 ms
- mean change in QT (QTcF) from baseline to Day 14 ([1]; rs3924426 (SLCO3A1) genotype Non-TT, N=48): 2.53 ms
- mean change in QT (QTcF) from baseline to Day 14 ([1]; rs3924426 (SLCO3A1) genotype Non-TT, N=48, listed as iloperidone): 2.5 ms
- mean change in QT (QTcF) from baseline to Day 14 ([1]; rs3924426 (SLCO3A1) genotype TT, N=135): 14.99 ms
- mean change in QT (QTcF) from baseline to Day 14 ([1]; rs3924426 (SLCO3A1) genotype TT, N=135, listed as iloperidone): 15.0 ms
- mean change in QT (QTcF) from baseline to Day 14 ([1]; rs4799915 (BRUNOL4) genotype CC, N=48): 2.88 ms
- mean change in QT (QTcF) from baseline to Day 14 ([1]; rs4799915 (BRUNOL4) genotype CC, N=48, listed as iloperidone): 2.9 ms
- mean change in QT (QTcF) from baseline to Day 14 ([1]; rs4799915 (BRUNOL4) genotype CT, N=78): 13.52 ms
- mean change in QT (QTcF) from baseline to Day 14 ([1]; rs4799915 (BRUNOL4) genotype Non-CC, N=132): 14.46 ms
- mean change in QT (QTcF) from baseline to Day 14 ([1]; rs4799915 (BRUNOL4) genotype Non-CC, N=132, listed as iloperidone): 14.5 ms
- mean change in QT (QTcF) from baseline to Day 14 ([1]; rs4799915 (BRUNOL4) genotype TT, N=54): 15.81 ms
- mean change in QT (QTcF) from baseline to Day 14 ([1]; rs4933824 (NRG3) genotype GG, N=124): 15.33 ms
- mean change in QT (QTcF) from baseline to Day 14 ([1]; rs4933824 (NRG3) genotype GG, N=124, listed as iloperidone): 15.3 ms
- mean change in QT (QTcF) from baseline to Day 14 ([1]; rs4933824 (NRG3) genotype GT, N=47): 4.62 ms
- mean change in QT (QTcF) from baseline to Day 14 ([1]; rs4933824 (NRG3) genotype Non-GG, N=57): 4.41 ms
- mean change in QT (QTcF) from baseline to Day 14 ([1]; rs4933824 (NRG3) genotype Non-GG, N=57, listed as iloperidone): 4.4 ms
- mean change in QT (QTcF) from baseline to Day 14 ([1]; rs4933824 (NRG3) genotype TT, N=10): 3.41 ms
- mean change in QT (QTcF) from baseline to Day 14 ([1]; rs7142881 (NUBPL) genotype AA, N=28): 17.65 ms
- mean change in QT (QTcF) from baseline to Day 14 ([1]; rs7142881 (NUBPL) genotype AG, N=71): 16.35 ms
- mean change in QT (QTcF) from baseline to Day 14 ([1]; rs7142881 (NUBPL) genotype GG, N=79): 5.67 ms
- mean change in QT (QTcF) from baseline to Day 14 ([1]; rs7142881 (NUBPL) genotype GG, N=79, listed as iloperidone): 5.7 ms
- mean change in QT (QTcF) from baseline to Day 14 ([1]; rs7142881 (NUBPL) genotype Non-GG, N=99): 16.71 ms
- mean change in QT (QTcF) from baseline to Day 14 ([1]; rs7142881 (NUBPL) genotype Non-GG, N=99, listed as iloperidone): 16.7 ms
- mean change in QT (QTcF) from baseline to Day 14 ([1]; rs17054392 (PALLD) genotype CC, N=2): 17.33 ms
- mean change in QT (QTcF) from baseline to Day 14 ([1]; rs17054392 (PALLD) genotype CT (heterozygous), N=30): -0.69 ms
- mean change in QT (QTcF) from baseline to Day 14 ([1]; rs17054392 (PALLD) genotype CT (heterozygous), N=30, listed as iloperidone): -0.7 ms
- mean change in QT (QTcF) from baseline to Day 14 ([1]; rs17054392 (PALLD) genotype Non-CT, N=153): 14.16 ms
- mean change in QT (QTcF) from baseline to Day 14 ([1]; rs17054392 (PALLD) genotype Non-CT, N=153, listed as iloperidone): 14.2 ms
- mean change in QT (QTcF) from baseline to Day 14 ([1]; rs17054392 (PALLD) genotype TT, N=151): 14.12 ms
- torsades de pointes in treated patients [2]: no evidence to date indicates that any patient treated with iloperidone has experienced torsades de pointes
